Test results from ChEMBL document CHEMBL1141818, “Annonaceous acetogenins: recent progress” (J Nat Prod, 1999).
In brackets after ≈: the same amount, converted by molar mass.

Assays:
[1] = tested on: Blattella germanica; assay: Ratio of LT50 for Blattella germanica Muncie fifth instars to LT50 for Blattella germanica Jwax fifth instars; assay type: functional
[2] = tested on: Blattella germanica; assay: Ratio of LT50 for Blattella germanica Muncie second instars to LT50 for Blattella germanica Jwax second instars; assay type: functional
[3] = tested on: KB; assay: Cytotoxicity against human KB cells; assay type: functional, cell-based; conditions: for IC50: Homo sapiens, KB
[4] = tested on: PC-3; assay: Cytotoxicity against human PC-3 cells; assay type: functional
[5] = tested on: A549; assay: Cytotoxicity against human A549 cells; assay type: functional
[6] = tested on: MCF7; assay: Cytotoxicity against human MCF7 cells; assay type: functional; conditions: for EC50: Homo sapiens, MCF7, read-out: ED50 (the source's name)
[7] = tested on: Artemia; assay: (§1) Toxicity in brine shrimp; assay type: organism-based; conditions: in vivo
[8] = tested on: A498; assay: Cytotoxicity against human A-498 cells; assay type: functional; conditions: Homo sapiens, A498; read-out: ED50 (the source's name)
[9] = tested on: MIA PaCa-2; assay: Cytotoxicity against human MIA PaCa2 cells; assay type: functional
[10] = tested on: HCT-8; assay: Cytotoxicity against human HCT8 cells; assay type: functional, cell-based
[11] = tested on: HT-29; assay: Cytotoxicity against human HT-29 cells; assay type: functional
[12] = as §1; assay type: organism-based; conditions: artemia, in vivo

Molecule `CCCCCCCCCCCCCC[C@@H](O)[C@H](O)CC[C@H](O)[C@@H]1CC[C@@H](CCCCC[C@@H](O)CC2=C[C@H](C)OC2=O)O1` [GIGANTETROCIN A] has a Ratio [1] of 1.5 and a Ratio [2] of 0.9.
Work on `CCCCCCC(O)CCC[C@H](O)[C@@H]1CC[C@@H]([C@@H]2CC[C@H]([C@H](O)CCCCCCCCCCCCC3=C[C@H](C)OC3=O)O2)O1` (stereo partly specified) [CAROLIN A] yielded an ED50 [3] of 1 ×10⁻⁷ ug/ml.
`CCCCCCCCCC[C@@H](O)[C@H]1CC[C@H]([C@H]2CC[C@H]([C@H](O)CCCCCCCC[C@@H](O)CC3=C[C@H](C)OC3=O)O2)O1` [PARVIFLORIN] showed a Ratio [1] of 1.5 and a Ratio [2] of 0.9.
With `CNC(=O)Oc1ccccc1OC(C)C` [PROPOXUR] the Ratio [1] was 1.7 and the Ratio [2] was 3.8.
Work on `CNC(=O)Oc1cccc2c1OC(C)(C)O2` [BENDIOCARB] yielded a Ratio [1] of 0.9 and a Ratio [2] of 2.5.
`CC1(C)C(C=C(Cl)Cl)C1C(=O)OC(C#N)c1cccc(Oc2ccccc2)c1` (stereo not drawn) [ALPHA-CYPERMETHRIN] showed a Ratio [2] of 2.
Work on `CCOP(=S)(OCC)Oc1nc(Cl)c(Cl)cc1Cl` [CHLORPYRIFOS] yielded a Ratio [1] of 8 and a Ratio [2] of 3.8.
In the case of `CCCCCCCCCCCC[C@H](O)[C@@H]1CC[C@@H]([C@@H](O)CCCCCCC(O)CCCCC[C@@H](O)CC2=C[C@H](C)OC2=O)O1` (stereo partly specified) [ANNOMONTACIN], the Ratio [1] is reported as 0.2 and the Ratio [2] is reported as 0.6.
In the case of `CCCCCCCCCCCCCC[C@H](O)[C@@H](O)CC[C@H](O)[C@@H]1CC[C@@H](CCCCC[C@@H](O)CC2=C[C@@](C)(O)OC2O)O1` (stereo partly specified) [DONNAIENIN B], the IC50 [3] is reported as 10 µg/mL (≈ 16.3 µM).
`CCCCCC(O)CCCC[C@H](O)[C@@H]1CC[C@@H]([C@@H]2CC[C@H]([C@H](O)CCCCCCCCCCCCC3=C[C@H](C)OC3=O)O2)O1` (stereo partly specified) [CAROLIN B] gave an ED50 [3] of 5 ×10⁻⁶ ug/ml.
For `CCCCCCCCCCC(O)C1CCC(C2CCC(C(O)CCCCCCCC[C@H](O)CC3=C[C@@H](C)OC3=O)O2)O1` (stereo partly specified) [ASIMICIN], the Ratio [1] was 1.6 and the Ratio [2] was 0.9.
In the case of `CCCCC[C@H](O)[C@H](O)CCC[C@H](O)[C@H]1CC[C@H]([C@H]2CC[C@H]([C@H](O)CCCCCCCCCCCCC3=C[C@H](C)OC3=O)O2)O1` (stereo in doubt; 97) [PURPUREDIOLIN], the ED50 [4] is reported as 3.5 ×10⁻¹ ug/ml, the ED50 [5] is reported as 4.4 ×10⁻¹ ug/ml and the EC50 [6] is reported as 0.92 µg/mL (≈ 1.44 µM). It also gave an LC50 [7] of 7 ×10⁻² ug/ml, an EC50 [8] of 1.4 µg/mL (≈ 2.19 µM) and an ED50 [9] of 1.4 µg/mL (≈ 2.19 µM).
`CCCCCCCCCCCC[C@H](O)[C@@H]1CC[C@H]([C@H](O)CCCCC(O)CCCCC[C@@H](O)CC2=C[C@@](C)(O)OC2=O)O1` (stereo partly specified) showed an IC50 [10] of under 10 µg/mL.
`CCCCCCCCCCCC[C@@H](O)[C@H]1CC[C@H]([C@H](O)CCCCCCCCCC[C@@H](O)CC2=C[C@@](C)(O)OC2=O)O1` [DONNAIENIN A] showed an IC50 [3] of under 1 µg/mL and an IC50 [10] of under 10 µg/mL.
Work on `CCCCCCCCCCCC[C@H](O)[C@@H]1CC[C@H]([C@H](O)CCCCCC(O)CCCCCCC2=C[C@H](C)OC2=O)O1` (stereo partly specified) yielded an EC50 ([4]; Homo sapiens, PC-3, read-out: ED50 (the source's name)) of 2.1 µg/mL (≈ 3.62 µM), an EC50 ([5]; Homo sapiens, A549, read-out: ED50 (the source's name)) of 2 µg/mL (≈ 3.44 µM) and an EC50 [6] of 1.7 µg/mL (≈ 2.93 µM). The EC50 ([11]; Homo sapiens, HT-29, read-out: ED50 (the source's name)) was 1.4 µg/mL (≈ 2.41 µM), the LC50 [12] was 6.8 µg/mL (≈ 11.7 µM) and the EC50 [8] was 1.8 µg/mL (≈ 3.1 µM). It also gave an EC50 ([9]; Homo sapiens, MIA PaCa-2, read-out: ED50 (the source's name)) of 1.1 µg/mL (≈ 1.89 µM).
With `CCCCCCCCCC[C@H](O)[C@@H](O)CCCC[C@H]1CC[C@H]([C@H]2CC[C@H]([C@H](O)CCCCC[C@@H](O)CC3=C[C@H](C)OC3=O)O2)O1` (stereo in doubt; 21) [GLACIN B] the ED50 [4] was 5.6 ×10⁻² ug/ml, the ED50 [5] was 1.3 µg/mL (≈ 2.03 µM) and the ED50 [6] was 5.2 ×10⁻² ug/ml. The ED50 [11] was 8.7 ×10⁻² ug/ml, the LC50 [12] was 0.27 µg/mL (≈ 0.423 µM) and the EC50 [8] was 2.6 µg/mL (≈ 4.07 µM). It also gave an ED50 [9] of 1.5 ×10⁻² ug/ml.
